Experimental data as given in ChEMBL document CHEMBL3286312, “Synthesis and structure-activity relationships of guaiane-type sesquiterpene lactone derivatives with respect to inhibiting NO production in lipopolysaccharide-induced RAW 264.7 macrophages” (Eur J Med Chem, 2014).
pIC50: −log10 of the molar value.

Experiments:
RAW264.7 [1] = assay: Antiinflammatory activity against mouse RAW264.7 cells assessed as inhibition of LPS-induced NO production at 25 uM after 18 hrs by Griess method relative to control; format: functional; conditions: RAW264.7, 18 h
[2] = Cytotoxicity against mouse RAW264.7 cells assessed as cell survival rate up to 25 uM after 18 hrs by MTT assay relative to control; format: cell-based; conditions: read-out: Survival
RAW264.7 [3] = assay: Antiinflammatory activity against mouse RAW264.7 cells assessed as inhibition of LPS-induced NO production at after 18 hrs by Griess method relative to control; format: functional, cell-based; conditions: RAW264.7, 18 h
RAW264.7 [4] = assay: Cytotoxicity against mouse RAW264.7 cells assessed as reduction in cell survival rate after 18 hrs by MTT assay relative to control; format: cell-based; conditions: RAW264.7, 18 h

Row | SMILES | inhibition at 25 µM (RAW264.7 [1]) [%] | viability at 18 h [2] [%] | pIC50 (RAW264.7 [3]) | pIC50 (RAW264.7 [4])
1 | CCOc1ccc(/C=C/C(=O)O[C@H]2CC3C(=C2C)[C@H]2OC(=O)[C@@H](C)[C@@H]2CC[C@@]3(C)O)cc1 (stereo partly specified) | 26.9 | 35.6 |  | 
2 | CC1=C2C(C[C@@H]1OC(=O)c1cccs1)[C@](C)(O)CC[C@H]1[C@H](C)C(=O)O[C@H]21 (stereo partly specified) | 0 | 100 |  | 
3 | CC1=C2C(C[C@@H]1OC(=O)/C=C/c1ccc([N+](=O)[O-])cc1)[C@](C)(O)CC[C@H]1[C@H](C)C(=O)O[C@H]21 (stereo partly specified) | 45 | 92.5 |  | 
4 | CCCCc1ccc(C(=O)O[C@H]2CC3C(=C2C)[C@H]2OC(=O)[C@@H](C)[C@@H]2CC[C@@]3(C)O)cc1 (stereo partly specified) | 33.2 | 72.6 |  | 
5 | CC1=C2C(C[C@@H]1OC(=O)c1ccc(Cl)cc1)[C@](C)(O)CC[C@H]1[C@H](C)C(=O)O[C@H]21 (stereo partly specified) | 19.6 | 100 |  | 
6 | CC1=C2C(C[C@@H]1OC(=O)/C=C/c1ccc(F)cc1)[C@](C)(O)CC[C@H]1[C@H](C)C(=O)O[C@H]21 (stereo partly specified) | 31.6 | 100 |  | 
7 | CCCOc1ccc(/C=C/C(=O)O[C@H]2CC3C(=C2C)[C@H]2OC(=O)[C@@H](C)[C@@H]2CC[C@@]3(C)O)cc1 (stereo partly specified) | 19.3 | 43.1 |  | 
8 | CC1=C2C(C[C@@H]1OC(=O)c1ccc3ccccc3c1)[C@](C)(O)CC[C@H]1[C@H](C)C(=O)O[C@H]21 (stereo partly specified) | 68.8 | 100 | 4.59 | 4.05
9 | CC1=C2C(C[C@@H]1OC(=O)c1ccsc1)[C@](C)(O)CC[C@H]1[C@H](C)C(=O)O[C@H]21 (stereo partly specified) | 6.7 | 93.9 |  | 
10 | CC1=C2C(C[C@@H]1OC(=O)c1cccc3ccccc13)[C@](C)(O)CC[C@H]1[C@H](C)C(=O)O[C@H]21 (stereo partly specified) | 79.6 | 67.4 | 5.16 | 5.12
11 | CC1=C2C(C[C@@H]1OC(=O)/C=C/c1ccc(C#N)cc1)[C@](C)(O)CC[C@H]1[C@H](C)C(=O)O[C@H]21 (stereo partly specified) | 31.4 | 100 |  | 
12 | CC1=C2C(C[C@@H]1OC(=O)c1ccc(C)cc1)[C@](C)(O)CC[C@H]1[C@H](C)C(=O)O[C@H]21 (stereo partly specified) | 21.2 | 100 |  | 
13 | CC1=C2C(C[C@@H]1OC(=O)c1ccco1)[C@](C)(O)CC[C@H]1[C@H](C)C(=O)O[C@H]21 (stereo partly specified) | 2.2 | 100 |  | 
14 | CC1=C2C(C[C@@H]1OC(=O)/C=C/c1ccc(N(C)C)cc1)[C@](C)(O)CC[C@H]1[C@H](C)C(=O)O[C@H]21 (stereo partly specified) | 44.5 | 100 |  | 
15 | CC1=C2C(C[C@@H]1OC(=O)c1ccc([N+](=O)[O-])cc1)[C@](C)(O)CC[C@H]1[C@H](C)C(=O)O[C@H]21 (stereo partly specified) | 1.8 | 100 |  | 
16 | CC1=C2C(C[C@@H]1OC(=O)c1ccc(C(F)(F)F)cc1)[C@](C)(O)CC[C@H]1[C@H](C)C(=O)O[C@H]21 (stereo partly specified) | 20.4 | 100 |  | 
17 | CC1=C2C(C[C@@H]1OC(=O)/C=C/c1ccc(C)cc1)[C@](C)(O)CC[C@H]1[C@H](C)C(=O)O[C@H]21 (stereo partly specified) | 58.8 | 100 | 4.54 | 4.12
18 | COc1ccc(/C=C/C(=O)O[C@H]2CC3C(=C2C)[C@H]2OC(=O)[C@@H](C)[C@@H]2CC[C@@]3(C)O)cc1 (stereo partly specified) | 19.3 | 100 |  | 
19 | CC1=C2C(C[C@@H]1OC(=O)c1ccccn1)[C@](C)(O)CC[C@H]1[C@H](C)C(=O)O[C@H]21 (stereo partly specified) | 0 | 100 |  | 
20 | CCCCCc1ccc(C(=O)O[C@H]2CC3C(=C2C)[C@H]2OC(=O)[C@@H](C)[C@@H]2CC[C@@]3(C)O)cc1 (stereo partly specified) | 29.8 | 79.3 |  | 
21 | CC1=C2C(C[C@@H]1OC(=O)c1ccc(C(C)(C)C)cc1)[C@](C)(O)CC[C@H]1[C@H](C)C(=O)O[C@H]21 (stereo partly specified) | 76.3 | 52.1 | 4.83 | 4.54

Row | SMILES | inhibition at 25 µM (RAW264.7 [1]) [%] | viability at 18 h [2] [%] | pIC50 (RAW264.7 [3]) | pIC50 (RAW264.7 [4])
22 | CC1=C2C(C[C@@H]1OC(=O)c1cccnc1)[C@](C)(O)CC[C@H]1[C@H](C)C(=O)O[C@H]21 (stereo partly specified) | 6.1 | 86.9 |  | 
23 | CC1=C2C(C[C@@H]1OC(=O)c1ccc(C#N)cc1)[C@](C)(O)CC[C@H]1[C@H](C)C(=O)O[C@H]21 (stereo partly specified) | 6.6 | 100 |  | 
24 | CSc1ccc(/C=C/C(=O)O[C@H]2CC3C(=C2C)[C@H]2OC(=O)[C@@H](C)[C@@H]2CC[C@@]3(C)O)cc1 (stereo partly specified) | 67.4 | 100 | 4.57 | < 4.00
25 | CC1=C2C(C[C@@H]1OC(=O)/C=C/c1ccc(Br)cc1)[C@](C)(O)CC[C@H]1[C@H](C)C(=O)O[C@H]21 (stereo partly specified) | 85.2 | 97.8 | 4.74 | 4.22
26 | CC1=C2C(C[C@@H]1OC(=O)c1ccncc1)[C@](C)(O)CC[C@H]1[C@H](C)C(=O)O[C@H]21 (stereo partly specified) | 2 | 100 |  | 
27 | COc1ccc(C(=O)O[C@H]2CC3C(=C2C)[C@H]2OC(=O)[C@@H](C)[C@@H]2CC[C@@]3(C)O)cc1 (stereo partly specified) | 6.6 | 98 |  | 
28 | CC1=C2C(C[C@@H]1O)[C@](C)(O)CC[C@H]1[C@H](C)C(=O)O[C@H]21 (stereo partly specified) | 0 | 100 |  | 
29 | CC1=C2C(C[C@@H]1OC(=O)c1ccc(F)cc1)[C@](C)(O)CC[C@H]1[C@H](C)C(=O)O[C@H]21 (stereo partly specified) | 19.4 | 100 |  | 
30 | CC1=C2C(C[C@@H]1OC(=O)/C=C/c1ccc(Cl)cc1)[C@](C)(O)CC[C@H]1[C@H](C)C(=O)O[C@H]21 (stereo partly specified) | 82 | 100 | 4.65 | 4.23
31 | CC1=C2C(C[C@@H]1OC(=O)c1ccc(C(C)C)cc1)[C@](C)(O)CC[C@H]1[C@H](C)C(=O)O[C@H]21 (stereo partly specified) | 53.3 | 74.7 |  | 
32 | N=C(N)NN [PIMAGEDINE] | 83.8 | 100 | 5.06 | 
33 | CC1=C2C(C[C@@H]1OC(=O)/C=C/c1ccc(C(F)(F)F)cc1)[C@](C)(O)CC[C@H]1[C@H](C)C(=O)O[C@H]21 (stereo partly specified) | 75.9 | 100 | 4.76 | 4.26
34 | CC(=O)O[C@]1(C)CC[C@H]2[C@H](C)C(=O)O[C@@H]2C2=C(C)C(=O)CC21 (stereo partly specified) | 6.9 | 100 |  | 
35 | CC1=C2C(C[C@@H]1OC(=O)c1ccc3ncccc3c1)[C@](C)(O)CC[C@H]1[C@H](C)C(=O)O[C@H]21 (stereo partly specified) | 23.2 | 100 |  | 
36 | CCCc1ccc(C(=O)O[C@H]2CC3C(=C2C)[C@H]2OC(=O)[C@@H](C)[C@@H]2CC[C@@]3(C)O)cc1 (stereo partly specified) | 30.6 | 73.4 |  | 
37 | CC1=C2C(CC1=O)[C@](C)(O)CC[C@H]1[C@H](C)C(=O)O[C@H]21 (stereo partly specified) | 0 | 100 |  | 
38 | CCc1ccc(C(=O)O[C@H]2CC3C(=C2C)[C@H]2OC(=O)[C@@H](C)[C@@H]2CC[C@@]3(C)O)cc1 (stereo partly specified) | 26.3 | 85.2 |  | 
39 | CC1=C2C(C[C@@H]1OC(=O)c1ccc(I)cc1)[C@](C)(O)CC[C@H]1[C@H](C)C(=O)O[C@H]21 (stereo partly specified) | 46.5 | 93 |  | 
40 | CC1=C2C(C[C@@H]1OC(=O)c1ccc(OC(F)(F)F)cc1)[C@](C)(O)CC[C@H]1[C@H](C)C(=O)O[C@H]21 (stereo partly specified) | 30.6 | 97.5 |  | 
41 | CC(=O)O[C@]1(C)CC[C@H]2[C@H](C)C(=O)O[C@@H]2C2=C(C)[C@@H](O)CC21 (stereo partly specified) | 0 | 100 |  | 
42 | CC1=C2C(C[C@@H]1OC(=O)c1ccc(Br)cc1)[C@](C)(O)CC[C@H]1[C@H](C)C(=O)O[C@H]21 (stereo partly specified) | 28.1 | 98.1 |  | 
